Assay results published in ChEMBL document CHEMBL1157230, “Bacterial biofilm inhibitors from Diospyros dendo” (2006).

Each compound was assayed on Pseudomonas aeruginosa (assay: Antibacterial activity against Pseudomonas aeruginosa PAO1 assessed as inhibition of biofilm formation at 10 ug/ml after 24 hrs). Settings: PAO1, 24 h.
Format: functional

Compound	inhibition at 10 µg/mL [%]
C[C@H]1[C@H](C)CC[C@]2(C(=O)O)CC[C@]3(C)C(=CC[C@@H]4[C@@]5(C)C[C@@H](O)[C@H](OC(=O)/C=C\c6ccc(O)cc6)C(C)(C)[C@@H]5CC[C@]43C)[C@H]12	32
COc1cc(/C=C/C(=O)O[C@H]2[C@H](O)C[C@]3(C)[C@H]4CC=C5[C@@H]6[C@@H](C)[C@H](C)CC[C@]6(C(=O)O)CC[C@@]5(C)[C@]4(C)CC[C@H]3C2(C)C)ccc1O	48
C[C@@H]1[C@H]2C3=CC[C@@H]4[C@@]5(C)CC[C@H](OC(=O)/C=C\c6ccc(O)cc6)C(C)(C)[C@@H]5CC[C@@]4(C)[C@]3(C)CC[C@@]2(C(=O)O)CC[C@]1(C)O	62
C[C@H]1[C@H](C)CC[C@]2(C(=O)O)CC[C@]3(C)C(=CC[C@@H]4[C@@]5(C)C[C@@H](O)[C@H](OC(=O)/C=C/c6ccc(O)cc6)C(C)(C)[C@@H]5CC[C@]43C)[C@H]12	35
C[C@H]1[C@H](C)CC[C@]2(C(=O)O)CC[C@]3(C)C(=CC[C@@H]4[C@@]5(C)CC[C@H](O)C(C)(C)[C@@H]5CC[C@]43C)[C@H]12 [URSOLIC ACID]	35
